Assay results reported in patent US20100317528A1, “HERBICIDE CONTAINING BENZOYLPYRAZOLE COMPOUND” (ISHIHARA SANGYO KAISHA, LTD., priority 2006, published 2010).

What was measured:
Format in all cases: in vivo
[1] = test system: barnyardgrass (Echinochloa crus-galli L.); assay: Test Example 1: foliar treatment, upland pot test, barnyardgrass
Excerpt: (§1) Upland field soil was put into a 1/170,000 hectare pot, and seeds of various plants were sown. When the respective plants reached predetermined leaf stage ((1) barnyardgrass (Echinochloa crus-galli L.): 1.0 to 3.0 leaf stage, (2) crabgrass (Digitaria sanguinalis L.): 1.0 to 3.0 leaf stage, (3) green foxtail (Setaria viridis L.): 1.0 to 3.0 leaf stage, (4) redroot pigweed (Amaranthus retroflexus L.): cotyledon stage to 2.0 leaf stage, (5) prickly sida (Sida spinosa L.): cotyledon stage to 1.0 leaf stage, (6) velvetleaf (Abutilon theophrasti MEDIC.): 0.1 to 1.5 leaf stage, (7) rice (Oryza sativa L.): 1.0 to 3.0 leaf stage, (8) wheat (Triticum spp.): 1.7 to 3.4 leaf stage, (9) corn (Zea mays L.): 2.0 to 3.5 leaf stage, (10) soybean (Glycine max Merr.): primary leaf stage to 0.4 leaf stage), wettable powders or emulsifiable concentrates of the compounds of the above formula (I) prepared in accordance with a conventional preparation method, were weighed so that the active ingredients became the prescribed amounts, and diluted with water in an amount corresponding to 500 liter per 1 hectare (containing 0.1 vol % of “KUSARINOH”, manufactured by NIHON NOHYAKU CO., LTD. as an agricultural spreader). The spray solutions thus prepared were applied for foliar treatment by a small sprayer.
(§2) On the 17th to 25th day after application, the state of growth of the respective plants was visually observed, and the herbicidal effect was evaluated by a growth inhibition rate (%) of 0 (equivalent to the non-treated area) to 100% (complete kill).

[2] = test system: crabgrass (Digitaria sanguinalis L.); assay: Test Example 1: foliar treatment, upland pot test, crabgrass
Excerpt: as §1, §2

[3] = test system: green foxtail (Setaria viridis L.); assay: Test Example 1: foliar treatment, upland pot test, green foxtail
Excerpt: as §1, §2

[4] = test system: redroot pigweed (Amaranthus retroflexus L.); assay: Test Example 1: foliar treatment, upland pot test, redroot pigweed; conditions: for Growth inhibition rate (%) Redroot pigweed: 31 g/ha active ingredient, observed 17th to 25th day after application
Excerpt: as §1, §2

[5] = test system: prickly sida (Sida spinosa L.); assay: Test Example 1: foliar treatment, upland pot test, prickly sida; conditions: for Growth inhibition rate (%) Prickly sida: 31 g/ha active ingredient, observed 17th to 25th day after application
Excerpt: as §1, §2

[6] = test system: velvetleaf (Abutilon theophrasti MEDIC.); assay: Test Example 1: foliar treatment, upland pot test, velvetleaf
Excerpt: as §1, §2

rice (Oryza sativa L.) [7] = assay: Test Example 1: foliar treatment, upland pot test, rice
Excerpt: as §1, §2

wheat (Triticum spp.) = assay: Test Example 1: foliar treatment, upland pot test, wheat
Excerpt: as §1, §2

corn (Zea mays L.) [8] = assay: Test Example 1: foliar treatment, upland pot test, corn
Excerpt: as §1, §2

[9] = test system: soybean (Glycine max Merr.); assay: Test Example 1: foliar treatment, upland pot test, soybean
Excerpt: as §1, §2

[10] = test system: barnyardgrass (Echinochloa crus-galli L.); assay: Test Example 2: soil application on the day after sowing, barnyardgrass; conditions: 250 g/ha active ingredient, observed 19th to 28th day after application
Excerpt: (§3) Upland field soil was put into a 1/170,000 hectare pot, and seeds of various plants barnyardgrass (Echinochloa crus-galli L.), crabgrass (Digitaria sanquinalis L.), green foxtail (Setaria viridis L.), redroot pigweed (Amaranthus retroflexus L.), prickly sida (Sida spinosa L.), velvetleaf (Abutilon theophrasti MEDIC.), rice (Oryza sativa L.), wheat (Triticum spp.), corn (Zea mays L.) and soybean (Glycine max Merr.)) were sown. On the day after sowing, wettable powders or emulsifiable concentrates of the compounds of the above formula (I) prepared in accordance with a conventional preparation method, were weighed so that the active ingredients became the prescribed amounts, and diluted with water in an amount corresponding to 500 liter per 1 hectare, followed by soil application with a small sprayer.
(§4) On the 19th to 28th day after the application, the state of growth of the respective plants was visually observed, and the herbicidal effect was evaluated by a growth inhibition rate (%) of from 0 (equivalent to the non-treated area) to 100% (complete kill).

[11] = test system: crabgrass (Digitaria sanquinalis L.); assay: Test Example 2: soil application on the day after sowing, crabgrass; conditions: 250 g/ha active ingredient, observed 19th to 28th day after application
Excerpt: as §3, §4

[12] = test system: green foxtail (Setaria viridis L.); assay: Test Example 2: soil application on the day after sowing, green foxtail; conditions: 250 g/ha active ingredient, observed 19th to 28th day after application
Excerpt: as §3, §4

[13] = test system: redroot pigweed (Amaranthus retroflexus L.); assay: Test Example 2: soil application on the day after sowing, redroot pigweed; conditions: 250 g/ha active ingredient, observed 19th to 28th day after application
Excerpt: as §3, §4

[14] = test system: prickly sida (Sida spinosa L.); assay: Test Example 2: soil application on the day after sowing, prickly sida; conditions: 250 g/ha active ingredient, observed 19th to 28th day after application
Excerpt: as §3, §4

[15] = test system: velvetleaf (Abutilon theophrasti MEDIC.); assay: Test Example 2: soil application on the day after sowing, velvetleaf; conditions: 250 g/ha active ingredient, observed 19th to 28th day after application
Excerpt: as §3, §4

rice (Oryza sativa L.) [16] = assay: Test Example 2: soil application on the day after sowing, rice; conditions: 250 g/ha active ingredient, observed 19th to 28th day after application
Excerpt: as §3, §4

corn (Zea mays L.) [17] = assay: Test Example 2: soil application on the day after sowing, corn; conditions: 250 g/ha active ingredient, observed 19th to 28th day after application
Excerpt: as §3, §4

[18] = test system: soybean (Glycine max Merr.); assay: Test Example 2: soil application on the day after sowing, soybean; conditions: 250 g/ha active ingredient, observed 19th to 28th day after application
Excerpt: as §3, §4

[19] = 31 g/ha active ingredient, observed 17th to 25th day after application

COCC(C)Oc1c(S(C)(=O)=O)ccc(C(=O)c2cnn(C)c2O)c1C (stereo not shown) [compound 254]
Growth inhibition rate (%) Barnyardgrass [1, 19]: 40% | Growth inhibition rate (%) Crabgrass [2, 19]: 50% | Growth inhibition rate (%) Green foxtail [3, 19]: 50% | Growth inhibition rate (%) Redroot pigweed [4]: 95% | Growth inhibition rate (%) Prickly sida [5]: 40% | Growth inhibition rate (%) Velvetleaf [6, 19]: 80% | Growth inhibition rate (%) Rice (rice (Oryza sativa L.) [7]; [19]): 40% | Growth inhibition rate (%) Wheat (wheat (Triticum spp.); [19]): 0% | Growth inhibition rate (%) Corn (corn (Zea mays L.) [8]; [19]): 0% | Growth inhibition rate (%) Soybean [9, 19]: 80% | Growth inhibition rate (%) Barnyardgrass [10]: 100% | Growth inhibition rate (%) Crabgrass [11]: 98% | Growth inhibition rate (%) Green foxtail [12]: 10% | Growth inhibition rate (%) Redroot pigweed [13]: 100% | Growth inhibition rate (%) Prickly sida [14]: 60% | Growth inhibition rate (%) Velvetleaf [15]: 50% | Growth inhibition rate (%) Rice (rice (Oryza sativa L.) [16]): 75% | Growth inhibition rate (%) Corn (corn (Zea mays L.) [17]): 0% | Growth inhibition rate (%) Soybean [18]: 0%

Cc1c(C(=O)c2cnn(C)c2O)ccc(S(C)(=O)=O)c1COCC(F)(F)F [compound 160]
Growth inhibition rate (%) Barnyardgrass [1, 19]: 90% | Growth inhibition rate (%) Crabgrass [2, 19]: 100% | Growth inhibition rate (%) Green foxtail [3, 19]: 75% | Growth inhibition rate (%) Redroot pigweed [4]: 98% | Growth inhibition rate (%) Prickly sida [5]: 60% | Growth inhibition rate (%) Velvetleaf [6, 19]: 100% | Growth inhibition rate (%) Rice (rice (Oryza sativa L.) [7]; [19]): 50% | Growth inhibition rate (%) Corn (corn (Zea mays L.) [8]; [19]): 0% | Growth inhibition rate (%) Soybean [9, 19]: 98% | Growth inhibition rate (%) Barnyardgrass [10]: 100% | Growth inhibition rate (%) Crabgrass [11]: 100% | Growth inhibition rate (%) Green foxtail [12]: 100% | Growth inhibition rate (%) Redroot pigweed [13]: 100% | Growth inhibition rate (%) Prickly sida [14]: 95% | Growth inhibition rate (%) Velvetleaf [15]: 100% | Growth inhibition rate (%) Rice (rice (Oryza sativa L.) [16]): 100% | Growth inhibition rate (%) Corn (corn (Zea mays L.) [17]): 0% | Growth inhibition rate (%) Soybean [18]: 50%

CCn1ncc(C(=O)c2ccc(S(C)(=O)=O)c(OCC3OCCO3)c2Cl)c1O [compound 250]
inhibition at 63 g/ha ([1]; Echinochloa crus-galli, 63 g/ha active ingredient, observed 21st day after application, read-out: Growth inhibition rate (%) Barnyardgrass): 100% | inhibition at 63 g/ha ([2]; Digitaria sanguinalis, 63 g/ha active ingredient, observed 21st day after application, read-out: Growth inhibition rate (%) Crabgrass): 98% | inhibition at 63 g/ha ([3]; Setaria viridis, 63 g/ha active ingredient, observed 21st day after application, read-out: Growth inhibition rate (%) Green foxtail): 80% | inhibition at 63 g/ha ([4]; Amaranthus retroflexus, 63 g/ha active ingredient, observed 21st day after application, read-out: Growth inhibition rate (%) Redroot pigweed): 100% | inhibition at 63 g/ha ([5]; Sida spinosa, 63 g/ha active ingredient, observed 21st day after application, read-out: Growth inhibition rate (%) Prickly sida): 60% | inhibition at 63 g/ha ([6]; Abutilon theophrasti, 63 g/ha active ingredient, observed 21st day after application, read-out: Growth inhibition rate (%) Velvetleaf): 95% | inhibition at 63 g/ha (rice (Oryza sativa L.) [7]; Oryza sativa, 63 g/ha active ingredient, observed 21st day after application, read-out: Growth inhibition rate (%) Rice): 0% | inhibition at 63 g/ha (wheat (Triticum spp.); Triticum, 63 g/ha active ingredient, observed 21st day after application, read-out: Growth inhibition rate (%) Wheat): 0% | inhibition at 63 g/ha (corn (Zea mays L.) [8]; Zea mays, 63 g/ha active ingredient, observed 21st day after application, read-out: Growth inhibition rate (%) Corn): 10% | inhibition at 63 g/ha ([9]; Glycine max, 63 g/ha active ingredient, observed 21st day after application, read-out: Growth inhibition rate (%) Soybean): 90%

Cc1c(C(=O)c2cnn(C)c2O)ccc(S(C)(=O)=O)c1COC(C)C [compound 257]
Growth inhibition rate (%) Barnyardgrass [1, 19]: 100% | Growth inhibition rate (%) Crabgrass [2, 19]: 90% | Growth inhibition rate (%) Green foxtail [3, 19]: 98% | Growth inhibition rate (%) Redroot pigweed [4]: 85% | Growth inhibition rate (%) Prickly sida [5]: 75% | Growth inhibition rate (%) Velvetleaf [6, 19]: 98% | Growth inhibition rate (%) Rice (rice (Oryza sativa L.) [7]; [19]): 90% | Growth inhibition rate (%) Corn (corn (Zea mays L.) [8]; [19]): 0% | Growth inhibition rate (%) Soybean [9, 19]: 70% | Growth inhibition rate (%) Barnyardgrass [10]: 90% | Growth inhibition rate (%) Crabgrass [11]: 100% | Growth inhibition rate (%) Green foxtail [12]: 60% | Growth inhibition rate (%) Redroot pigweed [13]: 98% | Growth inhibition rate (%) Prickly sida [14]: 70% | Growth inhibition rate (%) Velvetleaf [15]: 80% | Growth inhibition rate (%) Rice (rice (Oryza sativa L.) [16]): 90% | Growth inhibition rate (%) Corn (corn (Zea mays L.) [17]): 0% | Growth inhibition rate (%) Soybean [18]: 0%

COC(C)COc1c(S(C)(=O)=O)ccc(C(=O)c2cnn(C)c2O)c1C (stereo not shown) [compound 227]
Growth inhibition rate (%) Barnyardgrass [1, 19]: 95% | Growth inhibition rate (%) Crabgrass [2, 19]: 60% | Growth inhibition rate (%) Green foxtail [3, 19]: 98% | Growth inhibition rate (%) Redroot pigweed [4]: 100% | Growth inhibition rate (%) Prickly sida [5]: 90% | Growth inhibition rate (%) Velvetleaf [6, 19]: 100% | Growth inhibition rate (%) Rice (rice (Oryza sativa L.) [7]; [19]): 80% | Growth inhibition rate (%) Corn (corn (Zea mays L.) [8]; [19]): 0% | Growth inhibition rate (%) Soybean [9, 19]: 100% | Growth inhibition rate (%) Barnyardgrass [10]: 100% | Growth inhibition rate (%) Crabgrass [11]: 100% | Growth inhibition rate (%) Green foxtail [12]: 100% | Growth inhibition rate (%) Redroot pigweed [13]: 100% | Growth inhibition rate (%) Prickly sida [14]: 98% | Growth inhibition rate (%) Velvetleaf [15]: 100% | Growth inhibition rate (%) Rice (rice (Oryza sativa L.) [16]): 100% | Growth inhibition rate (%) Corn (corn (Zea mays L.) [17]): 0% | Growth inhibition rate (%) Soybean [18]: 10%

Cc1c(C(=O)c2cnn(C)c2O)ccc(S(C)(=O)=O)c1CC1OCCO1 [compound 256]
inhibition at 31 g/ha ([1]; Echinochloa crus-galli, 31 g/ha active ingredient, observed 17th to 25th day after application, read-out: Growth inhibition rate (%) Barnyardgrass): 100% | inhibition at 31 g/ha ([2]; Digitaria sanguinalis, 31 g/ha active ingredient, observed 17th to 25th day after application, read-out: Growth inhibition rate (%) Crabgrass): 90% | inhibition at 31 g/ha ([3]; Setaria viridis, 31 g/ha active ingredient, observed 17th to 25th day after application, read-out: Growth inhibition rate (%) Green foxtail): 70% | inhibition at 31 g/ha ([6]; Abutilon theophrasti, 31 g/ha active ingredient, observed 17th to 25th day after application, read-out: Growth inhibition rate (%) Velvetleaf): 100% | inhibition at 31 g/ha (rice (Oryza sativa L.) [7]; Oryza sativa, 31 g/ha active ingredient, observed 17th to 25th day after application, read-out: Growth inhibition rate (%) Rice): 60% | inhibition at 31 g/ha (corn (Zea mays L.) [8]; Zea mays, 31 g/ha active ingredient, observed 17th to 25th day after application, read-out: Growth inhibition rate (%) Corn): 0% | inhibition at 31 g/ha ([9]; Glycine max, 31 g/ha active ingredient, observed 17th to 25th day after application, read-out: Growth inhibition rate (%) Soybean): 80% | inhibition at 250 g/ha ([10]; Echinochloa crus-galli, read-out: Growth inhibition rate (%) Barnyardgrass): 100% | inhibition at 250 g/ha ([11]; Digitaria, read-out: Growth inhibition rate (%) Crabgrass): 100% | inhibition at 250 g/ha ([12]; Setaria viridis, read-out: Growth inhibition rate (%) Green foxtail): 95% | inhibition at 250 g/ha ([14]; Sida spinosa, read-out: Growth inhibition rate (%) Prickly sida): 60% | inhibition at 250 g/ha ([15]; Abutilon theophrasti, read-out: Growth inhibition rate (%) Velvetleaf): 80% | inhibition at 250 g/ha (rice (Oryza sativa L.) [16]; Oryza sativa, read-out: Growth inhibition rate (%) Rice): 80% | inhibition at 250 g/ha (corn (Zea mays L.) [17]; Zea mays, read-out: Growth inhibition rate (%) Corn): 0%
